Broadly, the solubility is the concentration that dissolves in the medium under given conditions.

The values that follow come from PubChem BioAssay AID602480 (National Center for Advancing Translational Sciences (NCATS), 2012).

In brackets after ≈: the same amount, converted by molar mass.

The subject of this data set is aqueous solubility in PBS. Description: qHTS Assay for Inhibitors of Bacillus subtilis Sfp phosphopantetheinyl transferase (PPTase): Aqueous Solubility in PBS. The source says: PPTases are responsible for the activation of a variety of pathogen-associated virulence factors. Among these compounds are toxins such as mycolactone from Mycobacterium ulcerans, siderophores such as vibriobactin from Vibrio cholerae or mycobactin from Mycobacterium tuberculosis, as well as the mycolic acids which form the waxy cell wall of Mycobacteria. The biosyntheses of these natural products are considered attractive targets for drug design. After a large qHTS and several follow-up assays, a small molecule was identified and this in vitro ADME assay serves to better characterize its properties.
This profiling assay looks at the […] of a small molecule in PBS (pH 7.4). This is an important parameter as it has significant impact on in vivo results, such as uptake, distribution, transport, and eventually bioavailability. This outcome is also of utmost importance for decisions concerning assay data and SAR strategy.
NIH Chemical Genomics Center [NCGC]
NIH Molecular Libraries Probe Centers Network [MLPCN]
Assay Submitter (PI): Michale Burkart, University of California, San Diego
1. 8ul of reference and test compound stock solution were added to 392ul 100mM phosphate buffer (pH 7.4)
2. Sample tubes were shaken for 1 hr (1000 rpm) at room temperature
3. […]
5. Concentration of the supernatant was determined by LC-UV or LC-MS/MS
(In general: qHTS replaces the single test concentration by a dilution series.)

As to `COc1ccnc(NC(=S)N2CCN(c3ncc(C(F)(F)F)cc3Cl)CC2)c1`, the solubility is 20 µM (≈ 8.64 µg/mL).
